Source: patent US20130005568A1, “SAFENED HERBICIDAL MIXTURES” (E.I. DU PONT DE NEMOURS AND COMPANY, priority 2011, published 2013)

Tests used:
[1] = tested on: Pioneer 39K40 hybrid maize; assay: Test A: visual plant response rating, postemergence herbicide treatments alone and with Compound 1; type: in vivo, Zea mays L. spp. indentata Sturt.; settings: Compound 1 alone 125 g ai/ha; Test A
Description: (§1) For all of the following biological tests, plant response ratings were based on a 0-100 scale where zero is growth equivalent to that of untreated plants (no plant response) and 100 represents no additional growth occurring after herbicide treatment.
Pioneer 39K40 hybrid maize used in this test (and also Tests B and C) is particularly sensitive to herbicides that inhibit the acetohydroxy acid synthase enzyme. Herbicide mixtures were dissolved/dispersed in a non-phytotoxic liquid carrier and were sprayed postemergence to Pioneer 39K40 hybrid maize (Zea mays L. spp. indentata Sturt.) in the third collar growth stage (extended leaf height was 50-60 cm). Treated plants were grown under greenhouse conditions for two weeks before visual evaluations of plant responses were recorded.

sorghum hybrid WL09-6001 = tested on: sorghum hybrid WL09-6001; parameters: species or system Sorghum bicolor (L.) Moench; settings: in vivo
Text: as §1
(§2) Cultivated sorghum varieties are generally very sensitive to acetohydroxy acid synthase-inhibiting herbicides such as rimsulfuron. To impart tolerance in sorghum hybrids WL09-6001 and WL09-6002 used in this test, plant breeders introduced a gene for acetohydroxy acid synthase (also known as acetolactate synthase) resistant to inhibition by certain acetohydroxy acid synthase-inhibiting herbicides, by breeding starting from a wild Sorghum genotype containing the resistance gene (see U.S. Patent Publication US 2008/0216187 A1).
(§3) Herbicide mixtures were formulated, dissolved/dispersed in water containing 1% crop oil concentrate, and sprayed postemergence to sorghum (Sorghum bicolor (L.) Moench) in the third collar growth stage (extended leaf height is 10-20 cm). Treated plants were grown under greenhouse conditions for two weeks before visual evaluations of plant responses were recorded.

sorghum hybrid WL09-6002 = tested on: sorghum hybrid WL09-6002; parameters: species or system Sorghum bicolor (L.) Moench; settings: in vivo
Text: as §1, §2, §3

spring wheat = assay: Test E: postemergence plant response rating; type: in vivo, Triticum aestivum L.; settings: Compound 1 alone 125 g ai/ha; Test E plants
Text: as §1
(§4) Herbicide mixtures were formulated, dissolved/dispersed in water containing 0.25% non-ionic surfactant, sprayed postemergence to the crops: winter wheat (Triticum aestivum L.), spring wheat (Triticum aestivum L.), winter barley (Hordeum vulgare L.) and spring barley (Hordeum vulgare L.), and the weeds: blackgrass (Alopecurus myosuroides Huds.), lambsquarters (Chenopodium album L.) and pigweed (Amaranthus retroflexus L.). Treated plants were grown under greenhouse conditions for two weeks before visual evaluations of plant responses were recorded.

winter wheat [2] = assay: Test E: postemergence plant response rating; type: in vivo, Triticum aestivum L.; settings: Compound 1 alone 125 g ai/ha; Test E plants
Text: as §1, §4

blackgrass = assay: Test E: postemergence plant response rating; type: in vivo, Alopecurus myosuroides Huds.; settings: Compound 1 alone 125 g ai/ha; Test E plants
Text: as §1, §4

winter wheat [3] = assay: Test F: preemergence plant response rating; type: in vivo, Triticum aestivum L.; settings: Compound 1 alone 125 g ai/ha; Test F plants
Text: as §1
(§5) Herbicide mixtures were formulated, dissolved/dispersed in water, and sprayed preemergence to the crops: winter wheat (Triticum aestivum L.) and winter barley (Hordeum vulgare L.), and the weed: blackgrass (Alopecurus myosuroides Huds). Treated plants were grown under greenhouse conditions for three weeks before visual evaluations of plant responses were recorded.

winter barley = assay: Test F: preemergence plant response rating; type: in vivo, Hordeum vulgare L.; settings: Compound 1 alone 125 g ai/ha; Test F plants
Text: as §1, §5

Zoysia grass = assay: Test G: turf grass and weed postemergence plant response rating; type: in vivo, Zoysia japonica Steud.; settings: Compound 1 alone 125 g ai/ha; Test G plants
Text: as §1
(§6) Plants of the turf grass species: zoysia (Zoysia japonica Steud.), bermudagrass (Cynodon dactylon (L.) Pers.), tall fescue (Festuca arundinacea Shreib.), creeping bentgrass (Agrostis stoonoifera L.), perennial ryegrass (Lolium perenne L.) and hard fescue (Festuca species) were grown under greenhouse conditions for four months. Plants were clipped as needed to plant heights of 5-10 cm. Weeds typically found in turf: annual bluegrass (Poa annua L.), common chickweed (Stellaria media (L.) Vill.), large crabgrass (Digitaria sanguinales (L.) Scop.), dandelion (Taraxacum officinale Weber in Wiggers), goosegrass (Eleusine indica (L.) Gaertn.), henbit (Lamium amplexicaule L.), venice mallow (Hibiscus trionium L.) and purple nutsedge (Cyperus rotundus L.) were also grown under greenhouse conditions so that plants were 5-20 cm tall when they were treated. Herbicide mixtures were formulated, dissolved/dispersed in water containing 0.25% non-ionic surfactant, and sprayed postemergence to these turf grasses and weeds. Treated plants were grown under greenhouse conditions for three weeks before visual evaluations of plant responses were recorded.

Hard fescue = assay: as above; type: in vivo, Festuca species; settings: Compound 1 alone 125 g ai/ha; Test G plants
Text: as §1, §6

Chickweed = assay: as above; type: in vivo, Stellaria media (L.) Vill.; settings: Compound 1 alone 125 g ai/ha; Test G plants
Text: as §1, §6

Large crabgrass = assay: as above; type: in vivo, Digitaria sanguinales (L.) Scop.; settings: Compound 1 alone 125 g ai/ha; Test G plants
Text: as §1, §6

Henbit = assay: as above; type: in vivo, Lamium amplexicaule L.; settings: Compound 1 alone 125 g ai/ha; Test G plants
Text: as §1, §6

Venice mallow = assay: as above; type: in vivo, Hibiscus trionium L.; settings: Compound 1 alone 125 g ai/ha; Test G plants
Text: as §1, §6

soybean = assay: Test I: postemergence plant response rating; type: in vivo, Glycine max (L.) Merr.; settings: Compound 1 alone 125 g ai/ha; Test I plants
Text: as §1
(§7) Herbicide mixtures were formulated, dissolved/dispersed in water containing 0.25% non-ionic surfactant, and sprayed postemergence to the crop: soybean (Glycine max (L.) Merr.) at the 2-leaf growth stage and to weeds: lambsquarters (Chenopodium album L.) and velvetleaf (Abutilon theophrasti Medik.). Weed species were 5-10 cm tall when treated. Treated plants were grown under greenhouse conditions for two weeks before visual evaluations of plant responses were recorded.

lambsquarters = assay: Test I: postemergence plant response rating; type: in vivo, Chenopodium album L.; settings: Compound 1 alone 125 g ai/ha; Test I plants
Text: as §1, §7

sugarcane = assay: Test J: sugarcane postemergence plant response rating, field conditions; type: in vivo, Saccharum officinarum L.; settings: Compound 1 alone 140 g ai/ha; Test J
Description: as §1
(§8) Herbicide mixtures were formulated, dissolved/dispersed in water containing 0.25% non-ionic surfactant, and sprayed postemergence to sugarcane (Saccharum officinarum L.) approximately 20-40 cm tall (extended leaf height). This test was conducted under field conditions. Visual evaluations of plant responses were recorded four weeks after the plants were treated.

Surinam grass = assay: Test K: pasture grass postemergence plant response rating, field conditions; type: in vivo, Brachiaria decumbens Stapf; settings: Compound 1 alone 140 g ai/ha; Test K plants
Text: as §1
as §8, with “the pasture grasses: Surinam grass (Brachiaria decumbens Stapf), palisade grass (Brachiaria brizantha (Hochst. ex A. Rich) Stapf) and Alexandergrass (Brachiaria plantaginea (Link) A. S. Hitchc.)” for “sugarcane (Saccharum officinarum L.)”, “10-30” for “20-40”

Alexandergrass = assay: as above; type: in vivo, Brachiaria plantaginea (Link) A. S. Hitchc.; settings: Compound 1 alone 140 g ai/ha; Test K plants
Text: as §1
as §8, with “the pasture grasses: Surinam grass (Brachiaria decumbens Stapf), palisade grass (Brachiaria brizantha (Hochst. ex A. Rich) Stapf) and Alexandergrass (Brachiaria plantaginea (Link) A. S. Hitchc.)” for “sugarcane (Saccharum officinarum L.)”, “10-30” for “20-40”

Measured: injury, Compound 1 alone

Cc1ccccc1S(=O)(=O)NC(N)=O [Compound 1, N-(aminocarbonyl)-2-methylbenzenesulfonamide]
no injury: all assays above
